Values quoted from earlier work as cited in patent publication US20170105937A1, “OLAPARIB CO-PRECIPITATE AND PREPARATION METHOD THEREOF” (CADILA HEALTHCARE LIMITED, priority 2015, published 2017).

Settings: poor solubility and moderate permeability

- Biopharmaceutics Classification System (BCS) class: class 4
SMILES: O=C(c1cc(Cc2n[nH]c(=O)c3ccccc23)ccc1F)N1CCN(C(=O)C2CC2)CC1 [Olaparib, 4-[3-(4-cyclopropanecarbonyl-piperazine-1-carbonyl)-4-fluoro-benzyl]-2H-phthalazin-1-one]
